Consider two molecules from article PMC5505983, “Naringenin Impairs Two-Pore Channel 2 Activity And Inhibits VEGF-Induced Angiogenesis” (Scientific Reports, 2017).

Test [1] addresses T1, hTPC2 (Homo sapiens, UniProt Q8NHX9).
T1 construct: gene TPCN2; full-length with C-terminal EGFP, plasmid pSAT-hTPC2-EGFP; transiently expressed in vacuoles of Arabidopsis thaliana tpc1-2 mutant mesophyll protoplasts; dimer
Kind of test: whole-vacuole patch clamp, dose-response of current inhibition. The test is classed as cell-based. The settings on record: read-out: apparent affinity constant.

Test [2] deals with T2, hTPC1 (Homo sapiens, UniProt Q9ULQ1).
T2 construct: gene TPCN1; full-length with C-terminal EGFP, plasmid pSAT-hTPC1-EGFP; transiently expressed in vacuoles of Arabidopsis thaliana tpc1-2 mutant mesophyll protoplasts; dimer
Kind of test: whole-vacuole patch clamp, current activation. The test is classed as biochemical. The settings on record: activator; 90 nM cytosolic side; diC8 form; pH 7.5 cytosolic, pH 5.5 vacuolar. On the technique in general: The patch-clamp technique gives a direct electrical read-out from membranes.

T1 sequence (Q8NHX9 whole entry): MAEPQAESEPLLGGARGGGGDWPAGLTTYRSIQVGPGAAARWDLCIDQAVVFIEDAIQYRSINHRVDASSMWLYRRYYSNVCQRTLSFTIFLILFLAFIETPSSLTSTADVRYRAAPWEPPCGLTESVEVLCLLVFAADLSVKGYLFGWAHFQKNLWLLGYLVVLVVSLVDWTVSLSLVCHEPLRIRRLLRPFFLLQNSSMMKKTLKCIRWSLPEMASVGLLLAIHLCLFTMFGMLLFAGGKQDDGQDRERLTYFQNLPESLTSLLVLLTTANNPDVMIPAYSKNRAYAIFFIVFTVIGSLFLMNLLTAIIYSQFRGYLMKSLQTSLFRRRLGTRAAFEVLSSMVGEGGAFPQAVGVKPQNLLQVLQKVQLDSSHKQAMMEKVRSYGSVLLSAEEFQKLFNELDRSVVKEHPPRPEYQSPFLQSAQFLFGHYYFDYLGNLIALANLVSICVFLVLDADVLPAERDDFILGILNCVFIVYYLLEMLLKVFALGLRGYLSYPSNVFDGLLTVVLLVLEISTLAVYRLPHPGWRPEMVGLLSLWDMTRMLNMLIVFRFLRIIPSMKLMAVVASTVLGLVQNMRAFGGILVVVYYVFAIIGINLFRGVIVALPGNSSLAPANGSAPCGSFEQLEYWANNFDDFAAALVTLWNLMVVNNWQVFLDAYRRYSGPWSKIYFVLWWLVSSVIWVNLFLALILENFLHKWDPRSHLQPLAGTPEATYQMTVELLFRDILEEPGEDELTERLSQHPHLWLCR

Turning to `O=C1C[C@@H](c2ccc(O)cc2)Oc2cc(O)cc(O)c21` [Nar, 5,7-dihydroxy-2-(4-hydroxyphenyl)chroman-4-one], the IC50 in test [1] came out at 180 ± 20 µM.

Take `CCCCCCCC(=O)OC[C@H](COP(=O)(O)O[C@@H]1[C@H](O)[C@H](OP(=O)(O)O)[C@@H](O)[C@H](OP(=O)(O)O)[C@H]1O)OC(=O)CCCCCCC` [PI(3,5)P2]: in test [2], the “whole-vacuole patch clamp, current activation” value was “very small in comparison to those elicited by the addition of the phosphoinositide”.
